Measurements: PubChem BioAssay AID602131 (Sanford-Burnham Center for Chemical Genomics, 2011)
The source made the active and inactive calls.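 How the source made its calls: active means IC50 at or below 20 µM; inactive means the rest.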

Biological target: glucose-6-phosphate dehydrogenase-6-phosphogluconolactonase (PfGluPho), Plasmodium falciparum 3D7
Experiment: inhibition of P. falciparum G6PD-lactonase – biochemical, fluorescence intensity, dose response, set 3, SAR follow-up (AID 602131)
Conditions: recombinant PfGluPho, NADPH resazurin-diaphorase fluorescence

In the case of `CCN1CCC[C@H]1CNC(=O)c1ccc2c(c1)NC(=O)c1ccccc1S2`, the IC50 is reported as “inactive”.
For `O=C(NCCN1CCCCC1)c1ccc2c(c1)NC(=O)c1ccccc1S2`, the IC50 was “inactive”.
For `CCN(CC)CCNC(=O)c1ccc2c(c1)NC(=O)/C(=C/c1ccccc1F)S2`, the IC50 was 6.86 µM.
In the case of `CN(C)c1ccccc1CNC(=O)c1ccc2c(c1)NC(=O)/C(=C/c1ccccc1F)S2`, the IC50 is reported as > 80 µM (inactive).
For `CCC(C)N(CCNC(=O)c1ccc2c(c1)NC(=O)c1ccccc1S2)C1CCCCC1` (centres undefined), the IC50 was 14.1 µM.
`NCCNC(=O)c1ccc2c(c1)NC(=O)c1ccccc1S2` was tested, and the IC50 was > 80 µM (inactive).
For `CCN(CC)CCCC(C)Nc1ccnc2cc(Cl)ccc12` (centres undefined), the IC50 was > 80 µM (inactive).
`CCC(C)N1CCCC1CNC(=O)c1ccc2c(c1)NC(=O)c1ccccc1S2` (centres undefined) was tested, and the IC50 was 9.23 µM.
For `O=C(NCCNC1CCCCC1)c1ccc2c(c1)NC(=O)c1ccccc1S2`, the IC50 was “inactive”.
`CCN1CCCC1CNC(=O)c1ccc2c(c1)NC(=O)C(Cc1ccccc1F)S2` (centres undefined) was tested, and the IC50 was > 80 µM (inactive).
`NC1CCN(C(=O)c2ccc3c(c2)NC(=O)/C(=C/c2ccccc2F)S3)C1` (centres undefined) was tested, and the IC50 was “inactive”.
With `CC(C)(C)OC(=O)N1CCCC1CNC(=O)c1ccc2c(c1)NC(=O)/C(=C/c1ccccc1F)S2` (centres undefined) the IC50 was > 80 µM (inactive).
With `CCN1CCC[C@@H]1CNC(=O)c1ccc2c(c1)NC(=O)/C(=C/c1ccccc1F)S2` the IC50 was 0.889 µM.
In the case of `NC1CCN(C(=O)c2ccc3c(c2)NC(=O)c2ccccc2S3)C1` (centres undefined), the IC50 is reported as > 80 µM (inactive).
For `CCN1CCC[C@H]1CNC(=O)c1ccc2c(c1)NC(=O)/C(=C/c1ccccc1F)S2`, the IC50 was 6.59 µM.
`CCN1CCCC1CNC(=O)c1ccc2c(c1)NC(=O)/C(=C/c1ccc(F)cc1)S2` (centres undefined) was tested, and the IC50 was 1.41 µM.
`O=C(NCCN1CCOCC1)c1ccc2c(c1)NC(=O)c1ccccc1S2` was tested, and the IC50 was > 80 µM (inactive).
In the case of `CCN1CCC[C@@H]1CNC(=O)c1ccc2c(c1)NC(=O)c1ccccc1S2`, the IC50 is reported as 5.05 µM.
Compound `CCN1CCCC1CNC(=O)c1ccc2c(c1)NC(=O)/C(=C/c1ccc3ccccc3c1)S2` (centres undefined) has an IC50 of 2.39 µM.
